Source: patent publication US20240247236A1, “METHOD FOR PRODUCING PLURIPOTENT STEM CELLS” (KANEKA CORPORATION, priority 2021, published 2024)

Test system: human iPS cell line 201B7
Assay: Quantitative real-time PCR analysis of germ layer marker genes in suspension culture of human iPS cell line 201B7
Format: cell-based
Conditions: WNT inhibitor = IWR-1-endo 20 μM, PKCβ inhibitor = GF109203X 3 μM
[1] = day 10 of suspension culture, compared with adherent culture (Reference Example 1)

Procedure: Human iPS cell line 201B7 after adherent culture in the same manner as in Reference Example 1 was treated with Accutase for 5 minutes to be detached from the culture surface, and the cells were dispersed into a single state by pipetting. The cells were suspended in StemFit (registered trademark) AK02N medium containing Y-27632 at a final concentration of 10 μM, and some of the cells were stained with trypan blue, followed by measurement of the viable cell count. A cell suspension was prepared using StemFit (registered trademark) AK02N medium containing Y-27632 at a final concentration of 10 μM such that the cell suspension included 2×10^5 cells per 1 mL. The cell suspension in an amount of 1 mL was seeded per well in a 12-well plate for suspension culture (Sumitomo Bakelite Co., Ltd.). The plate seeded with cells was rotated on a rotary shaker at a speed of 98 rpm along a horizontal plane in a circle with a rotation width (diameter) of 25 mm, during which the suspension culture was performed at 37° C. in a 5% CO2 environment.
The day when the cells were seeded was defined as day 0 of culture, passage was performed on day 5 of culture, and suspension culture was performed until day 10 of culture. Medium exchange was carried out every day. As for the method of medium exchange, the entire amount of the medium containing cell masses was collected into a centrifuge tube, and the tube was allowed to stand for about 5 minutes, thereby settling the cell masses. Then, the culture supernatant was removed, and the residue was gently resuspended in StemFit (registered trademark) AK02N medium, and returned to the original well.
Upon medium exchange, Y-27632 was added to the medium at a final concentration of 5 μM on days 1 and 6 of culture, and Y-27632 was added to the medium at a final concentration of 2 μM on days 2 and 7 of culture. On day 5 of culture, the cell masses and culture supernatant were collected from the wells into a centrifuge tube and allowed to stand for about 5 minutes, thereby settling the cell masses. Then, the culture supernatant was removed.
After adding 1 mL of Accutase to the cell masses, the cell masses were treated at 37° C. for 10 minutes and then dispersed into a single-cell state by pipetting. The cells were suspended in StemFit (registered trademark) AK02N medium containing Y-27632 at a final concentration of 10 μM, and some of the cells were stained with trypan blue, followed by measurement of the viable cell count. A cell suspension was prepared using StemFit (registered trademark) AK02N medium containing Y-27632 at a final concentration of 10 μM such that the cell suspension included 2×10^5 cells per 1 mL. Then, cell seeding was performed in the same manner as in the case of day 0 to continue the suspension culture.
Suspension culture was performed in the same manner as in Reference Example 2, except that IWR-1-endo was added as a WNT inhibitor at a final concentration of 20 μM to the seeding medium and the medium exchanged for new medium for suspension culture.

O=C(Nc1cccc2cccnc12)c1ccc(N2C(=O)[C@@H]3[C@H](C2=O)[C@@H]2C=C[C@H]3C2)cc1 [IWR-1-endo, 4-(1,3,3a,4,7,7a-hexahydro-1,3-dioxo-4,7-methano-2H-isoindole-2-yl)-N-8-quinolinyl-benzamide]
expression level of PAX6 (ectodermal marker gene) [1]: greater than that in Reference Example 1
expression level of SOX17 (endodermal marker gene) [1]: suppressed to the expression levels acceptable for the pluripotent stem cells as with Reference Example 1
expression level of TBXT (mesodermal marker gene) [1]: suppressed to the expression levels acceptable for the pluripotent stem cells as with Reference Example 1
spontaneous differentiation into ectoderm (suspension culture): weak suppressive effect
spontaneous differentiation into mesoderm and endoderm (suspension culture): can effectively suppress
